# According to US20250230193A1, “CYCLIC COMPOUND HAVING SELECTIVE KRAS INHIBITORY EFFECT ON HRAS AND NRAS” (CHUGAI SEIYAKU KABUSHIKI KAISHA, priority 2022, published 2025):
# Experiments:
# [1] = target: GDP-bound NRAS wild-type protein (Homo sapiens, UniProt P01111); experiment: Binding to NRAS by surface plasmon resonance (SPR), Single Cycle Kinetics; details: SPR, GDP-bound NRAS wild-type vs GDP-bound KRAS wild-type
# [2] = target: GDP-bound HRAS wild-type protein (Homo sapiens, UniProt P01112); experiment: Binding to HRAS by surface plasmon resonance (SPR), Single Cycle Kinetics; details: SPR, GDP-bound HRAS wild-type vs GDP-bound KRAS wild-type
# Sequence of GDP-bound HRAS wild-type protein (P01112 whole entry): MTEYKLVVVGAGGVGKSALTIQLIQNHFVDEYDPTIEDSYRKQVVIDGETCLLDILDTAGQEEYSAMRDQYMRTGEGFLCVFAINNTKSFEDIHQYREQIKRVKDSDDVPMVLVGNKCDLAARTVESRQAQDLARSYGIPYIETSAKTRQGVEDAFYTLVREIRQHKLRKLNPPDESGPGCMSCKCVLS
# Sequence of GDP-bound NRAS wild-type protein (P01111 whole entry): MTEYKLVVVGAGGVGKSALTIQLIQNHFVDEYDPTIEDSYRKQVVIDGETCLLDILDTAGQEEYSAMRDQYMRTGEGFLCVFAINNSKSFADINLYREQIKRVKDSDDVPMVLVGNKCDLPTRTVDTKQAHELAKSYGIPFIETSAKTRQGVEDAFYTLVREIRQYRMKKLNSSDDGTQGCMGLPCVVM
Structure (SMILES),NRAS/KRAS (ratio of KD value with respect to NRAS to KD value with respect to KRAS) [1],HRAS/KRAS (ratio of KD value with respect to HRAS to KD value with respect to KRAS) [2]
CCO[C@@H]1C[C@H]2C(=O)NC3(CC(C)(C)C3)C(=O)N(C)[C@@H](C(CC)CC)C(=O)N(C)[C@H](C(=O)N(C)C)CC(=O)N(C)[C@@H](CC3CCC3)C(=O)N[C@@H]([C@@H](C)CC)C(=O)N(C)CC(=O)N(C)[C@H]3C/C=C\CCN(C3=O)[C@@H](Cc3ccc(C(F)(F)F)cc3)C(=O)N(C)CC(=O)N[C@@H](CCc3ccc(C(F)(F)F)c(OC)c3)C(=O)N2C1 [PP2164],A (a compound having 10 or more and less than 20 is denoted as A),A (a compound having 10 or more and less than 20 is denoted as A)
CCO[C@@H]1C[C@H]2C(=O)NC3(CC(C)(C)C3)C(=O)N(C)[C@@H](C(CC)CC)C(=O)N(C)[C@H](C(=O)N(C)C)CC(=O)N(C)[C@@H](C(C)C)C(=O)N[C@@H]([C@@H](C)CC)C(=O)N(C)CC(=O)N(C)[C@H]3C/C=C\CCN(C3=O)[C@@H](Cc3ccc(C(F)(F)F)cc3)C(=O)N(C)CC(=O)N[C@@H](CCc3ccc(C(F)(F)F)c(OC)c3)C(=O)N2C1 [PP2165],A (a compound having 10 or more and less than 20 is denoted as A),A (a compound having 10 or more and less than 20 is denoted as A)
CCO[C@@H]1C[C@H]2C(=O)NC3(CC(C)(C)C3)C(=O)N(C)[C@@H](C(CC)CC)C(=O)N(C)[C@H](C(=O)N(C)C)CC(=O)N(C)[C@@H](CC3CC3)C(=O)N[C@@H]([C@@H](C)CC)C(=O)N(C)CC(=O)N(C)[C@H]3C/C=C\CCN(C3=O)[C@@H](Cc3ccc(C)cc3)C(=O)N(C)CC(=O)N[C@@H](CCc3ccc(C(F)(F)F)c(OC)c3)C(=O)N2C1 [PP2166],A (a compound having 10 or more and less than 20 is denoted as A),A (a compound having 10 or more and less than 20 is denoted as A)
CCO[C@@H]1C[C@H]2C(=O)NC3(CC(C)(C)C3)C(=O)N(C)[C@@H](C(CC)CC)C(=O)N(C)[C@H](C(=O)N3CCCC3)CC(=O)N(C)[C@@H](COC)C(=O)N[C@@H]([C@@H](C)CC)C(=O)N(C)CC(=O)N(C)[C@H]3C/C=C\CCN(C3=O)[C@@H](Cc3ccc(C)cc3)C(=O)N(C)CC(=O)N[C@@H](CCc3ccc(C(F)(F)F)c(OC)c3)C(=O)N2C1 [PP2167],AA (a compound having 20 or more is denoted as AA),A (a compound having 10 or more and less than 20 is denoted as A)
CCO[C@@H]1C[C@H]2C(=O)NC3(CC(C)(C)C3)C(=O)N(C)[C@@H](C(CC)CC)C(=O)N(C)[C@H](C(=O)N(C)C)CC(=O)N(C)[C@@H](CC(C)C)C(=O)N[C@@H]([C@@H](C)CC)C(=O)N(C)CC(=O)N(C)[C@H]3C/C=C\CCN(C3=O)[C@@H](Cc3ccc(C)cc3)C(=O)N(C)CC(=O)N[C@@H](CCc3ccc(C(F)(F)F)c(OC)c3)C(=O)N2C1 [PP2168],A (a compound having 10 or more and less than 20 is denoted as A),A (a compound having 10 or more and less than 20 is denoted as A)
CCO[C@@H]1C[C@H]2C(=O)NC3(CC(C)(C)C3)C(=O)N(C)[C@@H](C(CC)CC)C(=O)N(C)[C@H](C(=O)N3CCCC3)CC(=O)N(C)[C@@H](C)C(=O)N[C@@H]([C@@H](C)CC)C(=O)N(C)CC(=O)N(C)[C@H]3C/C=C\CCN(C3=O)[C@@H](Cc3ccc(C)cc3)C(=O)N(C)CC(=O)N[C@@H](CCc3ccc(C(F)(F)F)c(OC)c3)C(=O)N2C1 [PP2169],AA (a compound having 20 or more is denoted as AA),A (a compound having 10 or more and less than 20 is denoted as A)
CCO[C@@H]1C[C@H]2C(=O)NC3(CC(C)(C)C3)C(=O)N(C)[C@@H](C(CC)CC)C(=O)N(C)[C@H](C(=O)N(C)C)CC(=O)N(C)[C@@H](CC)C(=O)N[C@@H]([C@@H](C)CC)C(=O)N(C)CC(=O)N(C)[C@H]3C/C=C\CCN(C3=O)[C@@H](Cc3ccc(C)cc3)C(=O)N(C)CC(=O)N[C@@H](CCc3ccc(C(F)(F)F)c(OC)c3)C(=O)N2C1 [PP2170],A (a compound having 10 or more and less than 20 is denoted as A),A (a compound having 10 or more and less than 20 is denoted as A)
CCO[C@@H]1C[C@H]2C(=O)NC3(CC(C)(C)C3)C(=O)N(C)[C@@H](C(CC)CC)C(=O)N(C)[C@H](C(=O)N3CCCC3)CC(=O)N(C)[C@@H](CC)C(=O)N[C@@H]([C@@H](C)CC)C(=O)N(C)CC(=O)N(C)[C@H]3C/C=C\CCN(C3=O)[C@@H](Cc3ccc(C)cc3)C(=O)N(C)CC(=O)N[C@@H](CCc3ccc(C(F)(F)F)c(OC)c3)C(=O)N2C1 [PP2171],A (a compound having 10 or more and less than 20 is denoted as A),A (a compound having 10 or more and less than 20 is denoted as A)
CCO[C@@H]1C[C@H]2C(=O)NC3(CC(C)(C)C3)C(=O)N(C)[C@@H](C(CC)CC)C(=O)N(C)[C@H](C(=O)N(C)C)CC(=O)N(C)[C@@H](CC3CCC3)C(=O)N[C@@H]([C@@H](C)CC)C(=O)N(C)CC(=O)N(C)[C@H]3C/C=C\CCN(C3=O)[C@@H](Cc3ccc(C)cc3)C(=O)N(C)CC(=O)N[C@@H](CCc3ccc(C(F)(F)F)c(OC)c3)C(=O)N2C1 [PP2172],A (a compound having 10 or more and less than 20 is denoted as A),B (a compound having 3 or more and less than 10 is denoted as B)
CCO[C@@H]1C[C@H]2C(=O)NC3(CC(C)(C)C3)C(=O)N(C)[C@@H](C(CC)CC)C(=O)N(C)[C@H](C(=O)N(C)C)CC(=O)N(C)[C@@H](C(C)C)C(=O)N[C@@H]([C@@H](C)CC)C(=O)N(C)CC(=O)N(C)[C@H]3C/C=C\CCN(C3=O)[C@@H](Cc3ccc(C)cc3)C(=O)N(C)CC(=O)N[C@@H](CCc3ccc(C(F)(F)F)c(OC)c3)C(=O)N2C1 [PP2173],A (a compound having 10 or more and less than 20 is denoted as A),A (a compound having 10 or more and less than 20 is denoted as A)
CCO[C@@H]1C[C@H]2C(=O)NC3(CC(C)(C)C3)C(=O)N(C)[C@@H](C(CC)CC)C(=O)N(C)[C@H](C(=O)N3CCCC3)CC(=O)N(C)[C@@H](COC)C(=O)N[C@@H]([C@@H](C)CC)C(=O)N(C)CC(=O)N(C)[C@H]3C/C=C\CCN(C3=O)[C@@H](Cc3ccc(C(F)(F)F)cc3)C(=O)N(C)CC(=O)N[C@@H](CCc3ccc(Cl)c(Cl)c3)C(=O)N2C1 [PP2174],AA (a compound having 20 or more is denoted as AA),A (a compound having 10 or more and less than 20 is denoted as A)
CCC[C@H]1C(=O)N[C@@H]([C@@H](C)CC)C(=O)N(C)CC(=O)N(C)[C@H]2C/C=C\CCN(C2=O)[C@@H](Cc2ccc(C(F)(F)F)cc2)C(=O)N(C)CC(=O)N[C@@H](CCc2ccc(Cl)c(Cl)c2)C(=O)N2C[C@H](OCC)C[C@H]2C(=O)NC2(CC(C)(C)C2)C(=O)N(C)[C@@H](C(CC)CC)C(=O)N(C)[C@H](C(=O)N(C)C)CC(=O)N1C [PP2175],AA (a compound having 20 or more is denoted as AA),A (a compound having 10 or more and less than 20 is denoted as A)
CCO[C@@H]1C[C@H]2C(=O)NC3(CC(C)(C)C3)C(=O)N(C)[C@@H](C(CC)CC)C(=O)N(C)[C@H](C(=O)N(C)C)CC(=O)N(C)[C@@H](CC(C)C)C(=O)N[C@@H]([C@@H](C)CC)C(=O)N(C)CC(=O)N(C)[C@H]3C/C=C\CCN(C3=O)[C@@H](Cc3ccc(C(F)(F)F)cc3)C(=O)N(C)CC(=O)N[C@@H](CCc3ccc(Cl)c(Cl)c3)C(=O)N2C1 [PP2176],AA (a compound having 20 or more is denoted as AA),A (a compound having 10 or more and less than 20 is denoted as A)
CCO[C@@H]1C[C@H]2C(=O)NC3(CC(C)(C)C3)C(=O)N(C)[C@@H](C(CC)CC)C(=O)N(C)[C@H](C(=O)N3CCCC3)CC(=O)N(C)[C@@H](C)C(=O)N[C@@H]([C@@H](C)CC)C(=O)N(C)CC(=O)N(C)[C@H]3C/C=C\CCN(C3=O)[C@@H](Cc3ccc(C(F)(F)F)cc3)C(=O)N(C)CC(=O)N[C@@H](CCc3ccc(Cl)c(Cl)c3)C(=O)N2C1 [PP2178],AA (a compound having 20 or more is denoted as AA),A (a compound having 10 or more and less than 20 is denoted as A)
CCO[C@@H]1C[C@H]2C(=O)NC3(CC(C)(C)C3)C(=O)N(C)[C@@H](C(CC)CC)C(=O)N(C)[C@H](C(=O)N(C)C)CC(=O)N(C)[C@@H](CC)C(=O)N[C@@H]([C@@H](C)CC)C(=O)N(C)CC(=O)N(C)[C@H]3C/C=C\CCN(C3=O)[C@@H](Cc3ccc(C(F)(F)F)cc3)C(=O)N(C)CC(=O)N[C@@H](CCc3ccc(Cl)c(Cl)c3)C(=O)N2C1 [PP2179],AA (a compound having 20 or more is denoted as AA),A (a compound having 10 or more and less than 20 is denoted as A)
CCO[C@@H]1C[C@H]2C(=O)NC3(CC(C)(C)C3)C(=O)N(C)[C@@H](C(CC)CC)C(=O)N(C)[C@H](C(=O)N(C)C)CC(=O)N(C)[C@@H](CC3CCC3)C(=O)N[C@@H]([C@@H](C)CC)C(=O)N(C)CC(=O)N(C)[C@H]3C/C=C\CCN(C3=O)[C@@H](Cc3ccc(C(F)(F)F)cc3)C(=O)N(C)CC(=O)N[C@@H](CCc3ccc(Cl)c(Cl)c3)C(=O)N2C1 [PP2180],AA (a compound having 20 or more is denoted as AA),A (a compound having 10 or more and less than 20 is denoted as A)
